Data reported in patent publication US11826365B2, “Type II raf kinase inhibitors” (Dana-Farber Cancer Institute, Inc., priority 2009, dated 2023).

What was measured:
Assay type in all cases: cell-based
p38 = assay: Phosphorylation analysis by western blotting, phospho-p38 after anisomycin stimulation; conditions: following stimulation with anisomycin; western blot, phospho-p38 (Thr180/Tyr182)
Protocol: (§1) The phosphorylation levels of Erk, JNK, and p38 were assessed by western blotting using phospho-specific antibodies (results not shown). In brief, cells were treated for 15 min with/without 2 uM anicomycin to stimulate the MAPK-signaling pathways. Next various concentrations of the test compound were added to treat cells for 90 minutes. Cells lysed in lysis buffer (50 mM Tris-HCl pH 7.4, 150 mM NaCl, 5 mM EDTA, 1 mM EGTA, 1% Nonidet P-40, 2 mM Na3VO4 and protease inhibitor cocktail (Roche)). Equal amounts of lysate ([…]) were subjected to SDS-PAGE followed by immunoblotting with phospho-specific antibodies—anti-phospho-Erk (Thr202/Tyr204), anti-phospho-JNK (Thr183/Tyr185) and anti-phospho-p38 (Thr180/Tyr182) antibodies—or antibodies recognizing Erk (Cell signaling). Proteins were detected by enhanced chemioluminescence (ECL-plus; Amersham), following the manufacturer's guidelines.

JNK = assay: Phosphorylation analysis by western blotting, phospho-JNK after anisomycin stimulation; conditions: following stimulation with anisomycin; western blot, phospho-JNK (Thr183/Tyr185)
Protocol: as §1

[1] = target: T1, B-RAF 'gatekeeper mutation' T529I (Homo sapiens, UniProt P15056, T529I); assay: Suppression of B-RAF gatekeeper mutation T529I (FIGS. 18A to 18B); conditions: T529I confers resistance in other B-RAF inhibitors
T1 construct: expressed in transfected cells; host or cells: Ba/F3 (murine pro-B) cells transformed with B-RAF
T1 sequence (P15056 whole entry T529I): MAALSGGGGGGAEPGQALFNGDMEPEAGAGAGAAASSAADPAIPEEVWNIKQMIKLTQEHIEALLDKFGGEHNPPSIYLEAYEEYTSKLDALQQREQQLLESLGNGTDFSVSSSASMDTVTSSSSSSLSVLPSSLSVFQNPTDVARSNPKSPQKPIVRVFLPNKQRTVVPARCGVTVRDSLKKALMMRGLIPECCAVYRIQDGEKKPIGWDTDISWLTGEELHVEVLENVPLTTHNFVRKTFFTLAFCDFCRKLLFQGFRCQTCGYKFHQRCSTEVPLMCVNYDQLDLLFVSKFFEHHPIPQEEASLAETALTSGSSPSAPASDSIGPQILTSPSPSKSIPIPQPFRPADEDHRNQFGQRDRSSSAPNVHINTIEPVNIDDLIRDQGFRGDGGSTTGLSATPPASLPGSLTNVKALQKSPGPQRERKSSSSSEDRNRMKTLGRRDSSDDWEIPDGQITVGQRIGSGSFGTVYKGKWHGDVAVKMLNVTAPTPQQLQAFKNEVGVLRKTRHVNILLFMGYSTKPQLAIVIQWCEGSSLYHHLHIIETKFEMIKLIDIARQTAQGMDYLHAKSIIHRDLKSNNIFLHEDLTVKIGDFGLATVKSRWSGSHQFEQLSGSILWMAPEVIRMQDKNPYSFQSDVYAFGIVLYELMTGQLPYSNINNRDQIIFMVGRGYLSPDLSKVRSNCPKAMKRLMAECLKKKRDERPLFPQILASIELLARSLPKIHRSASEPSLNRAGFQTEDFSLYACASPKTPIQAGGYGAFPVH
Protocol: Ba/F3 cells and B-RAF transformed Ba/F3 cells were maintained in RPMI 1640 medium supplemented with 10% fetal bovine serum (FBS) in a 5% CO2 incubator at 37° C. The untransformed Ba/F3 cells are supplemented with 1.0 ng/ml of recombinant IL3. 4000 Ba/F3 cells per well were plated in quadruplicate in 384-well plates, in RPMI 1640 media supplemented with 10% FBS and various concentrations of IL3. After 48 h of growth, Brightglo reagent (Promega, WI) was added to each well. Luminescent was read as counts/sec. XL-fit was used for IC50 analysis.

Erk1/2 = assay: Phosphorylation analysis by western blotting, phospho-Erk after anisomycin stimulation; conditions: following stimulation with anisomycin; western blot, phospho-Erk (Thr202/Tyr204)
Protocol: as §1

SMILES: CCN1CCN(Cc2ccc(NC(=O)c3ccc(C)c(/C=C/c4cnc5[nH]ccc5c4OC)c3)cc2C(F)(F)F)CC1 [XI-1, (E)-N-(4-((4-ethylpiperazin-1-yl)methyl)-3-(trifluoromethyl)phenyl)-3-(2-(4-methoxy-1H-pyrrolo[2,3-b]pyridin-5-yl)vinyl)-4-methylbenzamide]
- inhibition of phosphorylation of p38 (p38): inhibits
- inhibition of phosphorylation of JNK (JNK): inhibits
- suppression of B-RAF gatekeeper mutation T529I [1]: can suppress
- inhibition of phosphorylation of Erk1/2 (Erk1/2): not
